“Also recorded” adds a separate entry of the source. Read-outs that look alike come from different tables or passages of the source.

We go through one substance from patent publication US10406227B2, “Photoactivated molecules for light-induced modulation of the activity of electrically excitable cells and methods of using same” (University of Southern California, priority 2012, dated 2019).

Data set [1] concerns primary cultured mouse chromaffin cells. Put plainly: Imaging RubpyC17 in live cells (membrane luminescence). The class given is cell-based. On the procedure:
(§1) Cells were imaged at 1-3 days after plating. The glass-bottomed chambers with adherent cells were washed twice with PBS and then filled with standard extracellular solution consisting of 140 mM NaCl, 2.8 mM KCl, 10 mM HEPES, 1 mM MgCl2, 2 mM CaCl2, and 10 mM glucose, pH adjusted to 7.2-7.4 and osmolarity adjusted to 290-310 mOsm. The chamber was then mounted on an Olympus IX70 inverted microscope stage for imaging, using a Cascade 512B EMCCD camera, operated by Metamorph software. Initial imaging was done with cells in extracellular solution without RubpyC17, first under brightfield to evaluate cell health and morphology, then under widefield argon ion laser illumination at 488 nm (Coherent, Innova 90-5, Santa Clara, Calif.), to evaluate autofluorescence. Next, the extracellular solution was removed and replaced with extracellular solution containing the RubpyC17 compound (10 μM in ≤0.01% DMSO, final concentrations). Cell images were then acquired with illumination at 488 nm (collected with a long-pass red emission filter). For electrophysiological experiments, RubpyC17 compound was added to the extracellular solution (2-10 μM in ≤0.01% DMSO, final concentrations as indicated) and cells were incubated for 1.5-45 min, as indicated, then washed with extracellular solution without RubpyC17. Some chromaffin cells were also exposed continuously to 490-900 nM RubpyC17-containing extracellular solution.
(§2) Illustrated here are rat insulinoma INS cells (FIG. 1C, top), human embryonic kidney (HEK293T) cells (FIG. 1C, middle), and primary cultured mouse chromaffin cells (FIG. 1C, bottom). […] All cell types preserved morphology for at least 10 minutes. […] One embodiment of the possible light-induced electron transfer is depicted in FIG. 1D.

The conditions of data set [2]: cited from earlier work.
For a further data set, the system named is chromaffin cells. The data set can be described thus: Cell-attached membrane perforation test (capacitive charging transient). The class given is cell-based, mouse. As to conditions: 18 μM in patch pipette; 10 minutes after gigaseal formation. An excerpt: FIGS. 5A-5H depict data from various experiments related to characteristics of RubpyC17-loaded cells. […] Inset images shown to the right of trace confirmed proper integration of RubpyC17 in patched cells. FIGS. 5C-5E show the light-induced action potential firing in chromaffin cells was not due to biophysical changes in voltage-gated ion channels as there were no significant changes in current-voltage relationships (C-D) nor in steady-state activation curve (E) in RubpyC17-loaded chromaffin cells before (open circle) or during ([…]) light illumination. […] Peak inward currents from each stimulation jump were plotted against corresponding stimulating voltages (n=6). […] Data from representative cell is shown (n=5). […] Currents resulting from capacitor-like behavior of chromaffin cell membranes during hyperpolarizing jumps to −85 mV from a resting membrane potential of −80 mV were recorded 5 min following giga-seal formation for amphoterecin B (bottom trace) or 10 min following giga-seal formation for RubpyC17 (top trace).
Finally, to test whether illumination of RubpyC17 incorporated in cell membranes causes nonspecific membrane poration or other damage, 18 μM RubpyC17 was loaded inside a patch pipette and attached to a cell (gigaseal formation) in the cell-attached configuration. […]

For the next data set, the system named is leech ganglion neurons. Put plainly: Ex vivo leech ganglion neuron recording. As to conditions: ex vivo ganglia. The class given is cell-based, Hirudo verbana. As to the method:
Adult leeches Hirudo verbana will be obtained from Niagara Medical Leeches, Inc. (Westbury, N.Y., USA). Groups (20-30) of animals will be kept in glass aquaria with artificial pond water (36 mg/L Instant Ocean salts; Aquarium Systems, Mentor Ohio), in a temperature-controlled room at 16° C. and a 12:12 h light:dark cycle. At the time of experiments, leeches will weigh 1-3 g. Before dissection, the leech will be anesthetized in ice-cold leech saline. Leech saline has the following composition (in mM per liter): NaCl-115, KCl-4, CaCl2-1.8, MgCl2-2, HEPES-10, D-Glucose-5 (Sigma-Aldrich, USA). Individual ganglia will be dissected from the mid-body segments M6-M12, and pinned down in Sylgard-filled dissection box. Medial dorsal longitudinal incision will be made and the blood will be flushed away. Connective tissue and the blood vessel overlaying the ganglion chain will be incised. Dissected ganglia will be transferred to a Petri dish, pinned down in paraffin with six stainless steel pins (dorsal side up). PVNs will be microinjected into the extracellular space of the ganglion with a glass micropipette. Intracellular recording will be performed by penetrating the Retzius neurons with sharp glass electrodes (20-30 MOhm) filled with 3M potassium acetate. […] Neuronal firing will be recorded before and after the injections.

In the next data set the test system is INS cells. Put plainly: Imaging RubpyC17 in live cells (membrane luminescence). The class given is cell-based, rat. On the procedure: as §1, §2
Where [3] appears, read: 10 μM in bath, 488 nm excitation.
Where [4] appears, read: 10 minutes after RubpyC17 removal.

On to [Ru(bpy)2(bpy-C17)](PF6)2 [RubpyC17], for which the “time cell morphology preserved” value (in data set [1] (10 μM RubpyC17); in the data set on INS cells (10 μM RubpyC17)) was “at least 10 minutes” in each case. The “incorporation into plasma membrane (membrane-localized luminescence)” value is “rapidly and stably incorporates into mammalian cell membranes” in data set [1] (setting [3]); “rapidly and stably incorporates into mammalian cell membranes” with INS cells (setting [3]). Besides, the “membrane luminescence after removal from bath solution” value (in data set [1] (setting [4]); in the data set on INS cells (setting [4])) was “still observed” each time. Moreover, the “electron transfer rate ket” value in data set [2] (photo-activated RubpyC17 to oxidant ferricyanide, aqueous solution) is about 6.5e+09 M⁻¹ s⁻¹; in data set [2] (reductant ascorbate to photo-activated RubpyC17), about 2e+07 M⁻¹ s⁻¹. Further, in the data set on chromaffin cells, the “capacitive charging transient (membrane perforation)” value is on record as “an increase in the capacitive charging transient was not detected”. Moreover, the “light-induced action potential firing” value in the data set with leech ganglion neurons was “respond to illumination by firing action potentials; also recorded: light-induced increases in action potential firing”.
